In US9096601B2 (CSPC Zhongqi Pharmaceutical Technology (Shijiazhuang) Co., …, priority 2010, dated 2015):

Assays:
EGFR L858R mutant type = EGFR L858R mutant type (Homo sapiens (Human), UniProt P00533, L858R); test: Kinase inhibitory activity, isotopic labeling (γ-33P-ATP); format: biochemical; conditions: ATP 200 μM (Km)
Method: (§1) The object of this assay was to test the inventive compounds for the kinase inhibitory activity in vitro. In this assay, an isotopic labeling method was used to label the γ phosphate group on ATP. […] Staurosporine was used as a reference molecule (or referred to as a positive control). […] The IC50 value can be obtained by the calculation of the inhibitory rates at a series of different concentrations of the tested compounds.
(§2) To a reaction tube were successively added the buffer solution (8 mM MOPS, pH 7.0, 0.2 mM EDTA, 10 mM MnCl2), the kinase to be tested (5-10 mU) (EGFR/ALK/BTK/c-KIT/c-SRC/MET/PDGFRα/VEGFR2), the substrate for the kinase to be tested (a reference material), 10 mM of the solution of magnesium acetate and γ-^33 P-ATP, and different concentrations of the tested compounds. […] The reaction was terminated with […] of the 3% phosphate buffer solution. 10 μL of the reaction liquid was titrated on the Filtermat A membrane. The membrane was washed with 75 mM of the phosphate solution thrice (5 minutes each time), and then with methanol once, and finally dried. The membrane was subjected to a scintillation counting. The value of the scintillation counting reflected the phosphorylation level of the substrate and therefore could characterize the inhibition of the kinase activity.

[1] = target: EGFR L858R/T790M double mutant type (Homo sapiens (Human), UniProt P00533, L858R/T790M); test: as above; format: biochemical; conditions: ATP 45 μM (Km)
Method: as §1, §2

EGFR wild type = EGFR wild type (Homo sapiens (Human), UniProt P00533); test: as above; format: biochemical; conditions: ATP 10 μM (Km)
Method: as §1, §2

ALK = ALK (Homo sapiens (Human), UniProt Q9UM73); test: as above; format: biochemical; conditions: compound at 10 μM
BTK = BTK (Homo sapiens (Human), UniProt Q06187); test: as above; format: biochemical; conditions: compound at 10 μM
FLT3 = FLT3 (Homo sapiens (Human), UniProt P36888); test: as above; format: biochemical; conditions: compound at 10 μM
MET = MET (Homo sapiens (Human), UniProt P08581); test: as above; format: biochemical; conditions: compound at 10 μM
PDGFRα = PDGFRα (Homo sapiens (Human), UniProt P16234); test: as above; format: biochemical; conditions: compound at 10 μM
VEGFR2 = VEGFR2 (Homo sapiens (Human), UniProt P35968); test: as above; format: biochemical; conditions: ATP 90 μM (Km)
How it was run: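 Buffer (8 mM MOPS, pH 7.0, 0.2 mM EDTA, 10 mM MnCl2), 5-10 mU kinase, substrate, 10 mM magnesium acetate with γ-33P-ATP, then compound at several concentrations were combined. After termination with 3% phosphate, filter-bound radioactivity was counted to give substrate phosphorylation and IC50.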

c-KIT = c-KIT (Homo sapiens (Human), UniProt P10721); test: as above; format: biochemical; conditions: compound at 10 μM
c-SRC = c-SRC (Homo sapiens (Human), UniProt P12931); test: as above; format: biochemical; conditions: compound at 10 μM
[2] = test system: non-small cell lung carcinoma cell strain H1975 (EGFR L858R/T790M mutation); test: In-vitro tumor cell proliferation inhibition, MTT; format: cell-based, human; conditions: 72 hours
[3] = test system: non-small cell lung carcinoma cell strain H292 (EGFR WT); test: In-vitro tumor cell proliferation inhibition, MTT; format: cell-based, human; conditions: 72 hours
[4] = test system: non-small cell lung carcinoma cell strain HCC827; test: In-vitro tumor cell proliferation inhibition, MTT; format: cell-based, human; conditions: 72 hours
How it was run: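 Cells grown in RPMI-1640 with 10% FBS, seeded overnight (HCC827 at 6×10^4 cells/ml), then exposed to graded compound concentrations for 72 h at 37 °C, 5% CO2, with 1% DMSO solvent control. MTT absorbance at 570 nm; inhibition relative to control; triplicate wells, ≥3 repeats.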

[5] = test system: non-small cell lung carcinoma cell strain PC-9 (EGFR delE746-A750 deletion mutation); test: In-vitro tumor cell proliferation inhibition, MTT; format: cell-based, human; conditions: 72 hours

Sequence of PDGFRα (P16234 24-1089): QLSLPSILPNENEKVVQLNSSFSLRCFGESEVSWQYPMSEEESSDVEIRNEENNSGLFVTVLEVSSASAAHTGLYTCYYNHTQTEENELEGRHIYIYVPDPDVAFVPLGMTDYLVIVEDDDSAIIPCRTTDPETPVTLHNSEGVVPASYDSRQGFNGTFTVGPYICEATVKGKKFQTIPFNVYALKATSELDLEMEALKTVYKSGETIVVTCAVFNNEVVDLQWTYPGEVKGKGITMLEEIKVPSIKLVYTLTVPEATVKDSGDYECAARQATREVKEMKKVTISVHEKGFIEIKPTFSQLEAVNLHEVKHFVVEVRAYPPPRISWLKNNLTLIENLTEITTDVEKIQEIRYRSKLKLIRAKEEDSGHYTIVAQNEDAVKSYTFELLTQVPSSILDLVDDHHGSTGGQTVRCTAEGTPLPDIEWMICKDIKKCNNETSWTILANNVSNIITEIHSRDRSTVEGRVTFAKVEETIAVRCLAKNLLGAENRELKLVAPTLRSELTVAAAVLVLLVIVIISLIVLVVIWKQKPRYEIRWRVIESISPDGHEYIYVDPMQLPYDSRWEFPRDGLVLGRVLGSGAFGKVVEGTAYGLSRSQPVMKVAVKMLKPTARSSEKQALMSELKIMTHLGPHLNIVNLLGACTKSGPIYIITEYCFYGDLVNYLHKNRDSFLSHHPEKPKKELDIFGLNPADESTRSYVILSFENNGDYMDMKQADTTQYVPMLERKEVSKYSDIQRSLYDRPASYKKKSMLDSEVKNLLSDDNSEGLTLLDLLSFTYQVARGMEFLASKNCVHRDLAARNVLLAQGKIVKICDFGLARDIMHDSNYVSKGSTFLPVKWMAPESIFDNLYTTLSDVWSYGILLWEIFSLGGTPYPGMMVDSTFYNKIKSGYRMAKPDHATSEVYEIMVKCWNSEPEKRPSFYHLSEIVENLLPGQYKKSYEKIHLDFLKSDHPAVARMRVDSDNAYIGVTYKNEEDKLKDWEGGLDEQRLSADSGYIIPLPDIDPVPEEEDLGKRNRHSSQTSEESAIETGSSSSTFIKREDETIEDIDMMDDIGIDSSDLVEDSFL
Sequence of EGFR wild type (P00533 25-1210): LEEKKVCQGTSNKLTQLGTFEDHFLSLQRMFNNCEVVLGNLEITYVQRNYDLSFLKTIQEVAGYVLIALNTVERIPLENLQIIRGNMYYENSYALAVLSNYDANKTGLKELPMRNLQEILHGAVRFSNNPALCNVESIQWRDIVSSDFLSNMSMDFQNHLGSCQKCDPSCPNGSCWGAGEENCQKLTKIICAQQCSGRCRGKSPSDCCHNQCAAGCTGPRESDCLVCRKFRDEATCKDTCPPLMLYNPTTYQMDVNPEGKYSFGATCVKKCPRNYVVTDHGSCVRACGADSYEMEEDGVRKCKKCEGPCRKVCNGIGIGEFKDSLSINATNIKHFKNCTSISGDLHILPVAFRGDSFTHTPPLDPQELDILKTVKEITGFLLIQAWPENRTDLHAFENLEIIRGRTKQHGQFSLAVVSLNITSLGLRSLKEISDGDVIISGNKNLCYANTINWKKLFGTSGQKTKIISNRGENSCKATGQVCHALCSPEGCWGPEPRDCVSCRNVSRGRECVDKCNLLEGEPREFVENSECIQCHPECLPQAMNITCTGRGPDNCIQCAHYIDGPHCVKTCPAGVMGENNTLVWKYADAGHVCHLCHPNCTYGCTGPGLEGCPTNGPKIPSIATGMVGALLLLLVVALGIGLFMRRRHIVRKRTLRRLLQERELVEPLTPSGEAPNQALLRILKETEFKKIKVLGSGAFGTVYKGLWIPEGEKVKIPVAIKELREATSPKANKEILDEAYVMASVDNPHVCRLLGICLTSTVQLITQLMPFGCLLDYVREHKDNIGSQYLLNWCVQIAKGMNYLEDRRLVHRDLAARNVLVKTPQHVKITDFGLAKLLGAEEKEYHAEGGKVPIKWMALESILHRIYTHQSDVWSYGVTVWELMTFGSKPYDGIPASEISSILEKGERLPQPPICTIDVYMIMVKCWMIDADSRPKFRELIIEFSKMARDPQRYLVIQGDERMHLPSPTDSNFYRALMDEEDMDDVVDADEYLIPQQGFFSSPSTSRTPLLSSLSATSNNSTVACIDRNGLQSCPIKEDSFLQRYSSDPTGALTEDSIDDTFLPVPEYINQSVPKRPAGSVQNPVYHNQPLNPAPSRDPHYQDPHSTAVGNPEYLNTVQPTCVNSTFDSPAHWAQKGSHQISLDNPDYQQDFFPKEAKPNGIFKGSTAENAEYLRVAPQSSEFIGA
Sequence of c-KIT (P10721 26-976): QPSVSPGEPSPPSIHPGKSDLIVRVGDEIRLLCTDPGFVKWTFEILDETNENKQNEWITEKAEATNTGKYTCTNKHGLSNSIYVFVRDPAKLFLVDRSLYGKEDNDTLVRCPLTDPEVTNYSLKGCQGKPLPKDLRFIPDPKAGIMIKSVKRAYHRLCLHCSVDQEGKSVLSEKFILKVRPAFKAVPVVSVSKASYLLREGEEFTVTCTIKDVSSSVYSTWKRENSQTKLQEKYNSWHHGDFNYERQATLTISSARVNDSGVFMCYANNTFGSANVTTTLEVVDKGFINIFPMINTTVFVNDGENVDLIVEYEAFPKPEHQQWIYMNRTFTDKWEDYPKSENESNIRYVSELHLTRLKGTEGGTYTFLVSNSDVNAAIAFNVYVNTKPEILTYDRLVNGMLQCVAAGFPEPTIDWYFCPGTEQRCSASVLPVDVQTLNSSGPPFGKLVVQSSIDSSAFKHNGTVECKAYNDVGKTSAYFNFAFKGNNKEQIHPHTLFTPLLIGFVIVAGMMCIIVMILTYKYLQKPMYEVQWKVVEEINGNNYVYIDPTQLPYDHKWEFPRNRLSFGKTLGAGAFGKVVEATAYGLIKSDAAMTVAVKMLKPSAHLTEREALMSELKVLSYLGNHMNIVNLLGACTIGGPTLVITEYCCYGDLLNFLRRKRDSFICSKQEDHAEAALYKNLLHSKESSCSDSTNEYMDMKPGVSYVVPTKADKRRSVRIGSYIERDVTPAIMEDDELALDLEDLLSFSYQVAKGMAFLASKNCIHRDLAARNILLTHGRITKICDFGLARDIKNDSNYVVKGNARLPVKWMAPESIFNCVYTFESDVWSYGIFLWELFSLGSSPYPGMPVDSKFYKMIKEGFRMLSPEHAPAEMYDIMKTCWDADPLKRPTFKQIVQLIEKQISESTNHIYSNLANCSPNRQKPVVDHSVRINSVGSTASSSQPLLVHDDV
Sequence of FLT3 (P36888 27-993): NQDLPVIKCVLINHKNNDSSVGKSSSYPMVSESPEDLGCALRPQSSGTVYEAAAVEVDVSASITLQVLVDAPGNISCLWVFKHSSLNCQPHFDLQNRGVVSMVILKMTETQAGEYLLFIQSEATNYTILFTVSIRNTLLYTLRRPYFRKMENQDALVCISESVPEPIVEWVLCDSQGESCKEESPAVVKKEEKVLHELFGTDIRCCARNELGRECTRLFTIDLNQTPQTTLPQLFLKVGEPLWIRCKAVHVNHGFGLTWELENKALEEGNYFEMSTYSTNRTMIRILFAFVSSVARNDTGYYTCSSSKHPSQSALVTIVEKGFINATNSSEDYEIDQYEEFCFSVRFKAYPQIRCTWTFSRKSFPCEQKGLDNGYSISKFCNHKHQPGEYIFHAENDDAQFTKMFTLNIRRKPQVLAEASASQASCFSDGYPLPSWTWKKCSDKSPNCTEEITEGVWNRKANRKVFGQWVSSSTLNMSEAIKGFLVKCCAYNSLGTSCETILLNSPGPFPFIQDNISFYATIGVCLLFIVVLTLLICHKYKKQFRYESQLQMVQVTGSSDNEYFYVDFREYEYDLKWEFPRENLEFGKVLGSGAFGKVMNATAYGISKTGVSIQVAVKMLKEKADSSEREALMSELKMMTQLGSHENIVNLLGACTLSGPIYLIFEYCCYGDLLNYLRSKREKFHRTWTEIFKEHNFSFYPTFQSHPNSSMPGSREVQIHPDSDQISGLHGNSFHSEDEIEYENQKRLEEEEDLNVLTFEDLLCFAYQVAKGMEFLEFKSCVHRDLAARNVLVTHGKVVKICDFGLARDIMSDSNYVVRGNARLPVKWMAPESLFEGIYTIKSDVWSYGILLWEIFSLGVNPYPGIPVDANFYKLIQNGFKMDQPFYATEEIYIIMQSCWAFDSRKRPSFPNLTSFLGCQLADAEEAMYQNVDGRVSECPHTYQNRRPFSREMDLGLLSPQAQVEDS
Sequence of c-SRC (P12931 whole entry, looked up): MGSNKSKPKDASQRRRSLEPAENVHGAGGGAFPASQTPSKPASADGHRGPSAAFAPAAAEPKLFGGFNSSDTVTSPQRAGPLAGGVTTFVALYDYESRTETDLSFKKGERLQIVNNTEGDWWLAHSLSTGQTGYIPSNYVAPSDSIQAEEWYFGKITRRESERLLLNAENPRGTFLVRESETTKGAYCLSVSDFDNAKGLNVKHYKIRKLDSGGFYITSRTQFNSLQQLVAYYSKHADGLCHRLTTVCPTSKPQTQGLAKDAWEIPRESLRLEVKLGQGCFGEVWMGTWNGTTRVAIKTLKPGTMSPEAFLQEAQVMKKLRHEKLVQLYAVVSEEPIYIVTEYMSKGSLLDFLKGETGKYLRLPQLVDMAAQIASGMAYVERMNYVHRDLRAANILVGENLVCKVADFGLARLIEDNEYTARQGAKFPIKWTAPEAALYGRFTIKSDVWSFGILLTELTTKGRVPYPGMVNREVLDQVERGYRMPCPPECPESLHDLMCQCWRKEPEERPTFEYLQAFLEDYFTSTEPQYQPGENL

CN1CCN(c2ccc(Nc3ncc4nc(Nc5ccccc5)n(C5CC5)c4n3)cc2)CC1 [Compounds 8-23]
IC50 (EGFR L858R mutant type): 0.002 µM | IC50 [1]: 0.041 µM | IC50 (EGFR wild type): 0.007 µM | The kinase activity inhibitory rate (%) by the tested compounds at 10 μM ALK (ALK): 3% | The kinase activity inhibitory rate (%) by the tested compounds at 10 μM BTK (BTK): 30% | The kinase activity inhibitory rate (%) by the tested compounds at 10 μM FLT3 (FLT3): 68% | The kinase activity inhibitory rate (%) by the tested compounds at 10 μM MET (MET): 1% | The kinase activity inhibitory rate (%) by the tested compounds at 10 μM PDGFRα (PDGFRα): 28% | IC50 (VEGFR2): > 1000 nM | The kinase activity inhibitory rate (%) by the tested compounds at 10 μM c-KIT (c-KIT): 26% | The kinase activity inhibitory rate (%) by the tested compounds at 10 μM c-SRC (c-SRC): 83% | IC50 [2]: > 10000 nM | IC50 [3]: 154 nM | IC50 [4]: 0.2 nM | IC50 [5]: 35.9 nM

CN1CCN(c2ccc(Nc3ncc4nc(Nc5ccccc5)n(C)c4n3)cc2)CC1 [Compounds 8-24]
IC50 (EGFR L858R mutant type): 0.003 µM | IC50 [1]: 0.522 µM | IC50 (EGFR wild type): 0.012 µM | The kinase activity inhibitory rate (%) by the tested compounds at 10 μM ALK (ALK): 8% | The kinase activity inhibitory rate (%) by the tested compounds at 10 μM BTK (BTK): 14% | The kinase activity inhibitory rate (%) by the tested compounds at 10 μM FLT3 (FLT3): 75% | The kinase activity inhibitory rate (%) by the tested compounds at 10 μM MET (MET): 0% | The kinase activity inhibitory rate (%) by the tested compounds at 10 μM PDGFRα (PDGFRα): 29% | IC50 (VEGFR2): > 1000 nM | The kinase activity inhibitory rate (%) by the tested compounds at 10 μM c-KIT (c-KIT): 48% | The kinase activity inhibitory rate (%) by the tested compounds at 10 μM c-SRC (c-SRC): 75% | IC50 [2]: > 10000 nM | IC50 [3]: 171 nM | IC50 [4]: 0.2 nM | IC50 [5]: 6 nM

CN1CCN(c2ccc(Nc3ncc4nc(Nc5ccccc5)[nH]c4n3)cc2)CC1 [Compounds 8-25]
IC50 (EGFR L858R mutant type): 0.005 µM | IC50 [1]: 0.458 µM | IC50 (EGFR wild type): 0.029 µM | The kinase activity inhibitory rate (%) by the tested compounds at 10 μM ALK (ALK): 13% | The kinase activity inhibitory rate (%) by the tested compounds at 10 μM BTK (BTK): 45% | The kinase activity inhibitory rate (%) by the tested compounds at 10 μM FLT3 (FLT3): 32% | The kinase activity inhibitory rate (%) by the tested compounds at 10 μM MET (MET): 0% | The kinase activity inhibitory rate (%) by the tested compounds at 10 μM PDGFRα (PDGFRα): 21% | IC50 (VEGFR2): > 1000 nM | The kinase activity inhibitory rate (%) by the tested compounds at 10 μM c-KIT (c-KIT): 8% | The kinase activity inhibitory rate (%) by the tested compounds at 10 μM c-SRC (c-SRC): 78% | IC50 [2]: > 10000 nM | IC50 [3]: 1650 nM | IC50 [4]: 52.8 nM | IC50 [5]: 258 nM

CC(C)n1c(Nc2ccc(C(F)(F)F)cc2)nc2cnc(Nc3ccc(N4CCN(C)CC4)cc3)nc21 [Compounds 8-27]
IC50 (EGFR L858R mutant type): 0.005 µM | IC50 [1]: 0.054 µM | IC50 (EGFR wild type): 0.034 µM | The kinase activity inhibitory rate (%) by the tested compounds at 10 μM ALK (ALK): 30% | The kinase activity inhibitory rate (%) by the tested compounds at 10 μM BTK (BTK): 74% | The kinase activity inhibitory rate (%) by the tested compounds at 10 μM FLT3 (FLT3): 83% | The kinase activity inhibitory rate (%) by the tested compounds at 10 μM MET (MET): 36% | The kinase activity inhibitory rate (%) by the tested compounds at 10 μM PDGFRα (PDGFRα): 68% | IC50 (VEGFR2): 9 nM | The kinase activity inhibitory rate (%) by the tested compounds at 10 μM c-KIT (c-KIT): 93% | The kinase activity inhibitory rate (%) by the tested compounds at 10 μM c-SRC (c-SRC): 98% | IC50 [2]: > 10000 nM | IC50 [3]: 4190 nM | IC50 [4]: 82.3 nM | IC50 [5]: 115 nM

CC(C)n1c(Nc2cccnc2)nc2cnc(Nc3ccc(N4CCN(C)CC4)cc3)nc21 [Compounds 8-29]
IC50 (EGFR L858R mutant type): 0.004 µM | IC50 [1]: 0.064 µM | IC50 (EGFR wild type): 0.031 µM | The kinase activity inhibitory rate (%) by the tested compounds at 10 μM ALK (ALK): 15% | The kinase activity inhibitory rate (%) by the tested compounds at 10 μM BTK (BTK): 60% | The kinase activity inhibitory rate (%) by the tested compounds at 10 μM FLT3 (FLT3): 99% | The kinase activity inhibitory rate (%) by the tested compounds at 10 μM MET (MET): 50% | The kinase activity inhibitory rate (%) by the tested compounds at 10 μM PDGFRα (PDGFRα): 42% | IC50 (VEGFR2): > 1000 nM | The kinase activity inhibitory rate (%) by the tested compounds at 10 μM c-KIT (c-KIT): 36% | The kinase activity inhibitory rate (%) by the tested compounds at 10 μM c-SRC (c-SRC): 97% | IC50 [2]: > 10000 nM | IC50 [3]: 180 nM | IC50 [4]: 7.2 nM | IC50 [5]: 10 nM

CC(C)n1c(NC2CCCCC2)nc2cnc(Nc3ccc(N4CCN(C)CC4)cc3)nc21 [Compounds 8-30]
IC50 (EGFR L858R mutant type): 0.005 µM | IC50 [1]: 0.228 µM | IC50 (EGFR wild type): 0.015 µM | The kinase activity inhibitory rate (%) by the tested compounds at 10 μM ALK (ALK): 8% | The kinase activity inhibitory rate (%) by the tested compounds at 10 μM BTK (BTK): 25% | The kinase activity inhibitory rate (%) by the tested compounds at 10 μM FLT3 (FLT3): 43% | The kinase activity inhibitory rate (%) by the tested compounds at 10 μM MET (MET): 0% | The kinase activity inhibitory rate (%) by the tested compounds at 10 μM PDGFRα (PDGFRα): 21% | IC50 (VEGFR2): > 1000 nM | The kinase activity inhibitory rate (%) by the tested compounds at 10 μM c-KIT (c-KIT): 0% | The kinase activity inhibitory rate (%) by the tested compounds at 10 μM c-SRC (c-SRC): 67% | IC50 [2]: > 10000 nM | IC50 [3]: 201 nM | IC50 [4]: 483 nM | IC50 [5]: 55.1 nM

C=CC(=O)Nc1cccc(Nc2ncc3nc(Nc4ccccc4)n(C(C)C)c3n2)c1 [Compounds 8-38]
IC50 (EGFR L858R mutant type): 0.0006 µM | IC50 [1]: 0.037 µM | IC50 (EGFR wild type): 0.002 µM | The kinase activity inhibitory rate (%) by the tested compounds at 10 μM ALK (ALK): 22% | The kinase activity inhibitory rate (%) by the tested compounds at 10 μM BTK (BTK): 93% | The kinase activity inhibitory rate (%) by the tested compounds at 10 μM FLT3 (FLT3): 86% | The kinase activity inhibitory rate (%) by the tested compounds at 10 μM MET (MET): 74% | The kinase activity inhibitory rate (%) by the tested compounds at 10 μM PDGFRα (PDGFRα): 55% | IC50 (VEGFR2): > 1000 nM | The kinase activity inhibitory rate (%) by the tested compounds at 10 μM c-KIT (c-KIT): 63% | The kinase activity inhibitory rate (%) by the tested compounds at 10 μM c-SRC (c-SRC): 93% | IC50 [2]: 644 nM | IC50 [3]: 7.3 nM | IC50 [4]: 0.5 nM | IC50 [5]: 0.7 nM
